Assay results taken from patent US7001608B2, “Artificial synapse chip interface for electronic prosthetic retina” (The Board of Trustees of the Lealand Stanford Junior …, priority 2001, dated 2006).

Experiment: Gramicidin D conductance change in lipid bilayer across silicon nitride aperture
Format: biochemical
Settings: 5 to 20 μl of 2 mg/ml gD in ethanol to each bath; within minutes; capacitance remained constant; ethanol alone no effect
Excerpt: Lipid bilayers were formed by the method of Montal and Mueller (1972). In practicing the Langmuir-Blodgett technique, one raises two lipid monolayers across an aperture, allowing the lipids to align their hydrophobic tail portions across the aperture so as to form a lipid bilayer. Because of the hydrophobic nature of the lipid tails, in order to form stable bilayers the surface of a BSP must also be hydrophobic. If the substrate is hydrophobic, the lipids can smoothly transition from coating the substrate to spanning the aperture. To reverse the wetting properties of the naturally hydrophilic silicon nitride, the silicon nitride was coated with an alkylsilane (octyltrichlorosilane). Application of this coating was quite simple and very effective. It was not found to be possible to form a bilayer with untreated devices. Use of longer carbon chain silanes or alternative materials to make the surface even more hydrophobic would further increase bilayer stability.
For smaller apertures, it was more difficult to observe the capacitance change over the background. In this case, membrane-bound proteins that affect the electrical properties of the bilayer, such as carriers and ion channels, offered the best proof of the formation of a bilayer. The ion channel peptide Gramicidin D (gD), was chosen for ease of use and large conductance change. […]

Substance: Gramicidin D [gD]
- conductance of the bilayer: dramatically increased
